# Measured values taken from ChEMBL document CHEMBL1155287, “Discovery of a small molecule inhibitor through interference with the gp120-CD4 interaction” (Bioorg Med Chem Lett, 2009).
# Key:
# [1] = Inhibition of HIV1 JRFL gp120-mediated CHO cells fusion to HeLaP4 cells by HIV LTR-beta galactosidase reporter assay; type: cell-based; conditions: Human immunodeficiency virus 1, JRFL
# [2] = Cytotoxicity against human HeLaP4 cells; type: cell-based
# [3] = Plasma protein binding in rat at 1 mg/kg, iv and 1 mg/kg, po; type: ADME, organism-based; conditions: read-out: PPB (converted)
# [4] = in vitro; conditions: human, liver microsomes
# [5] = in vitro; conditions: rat, liver microsomes
# [6] = Half life in rat at 1 mg/kg, iv and 1 mg/kg, po; type: ADME, organism-based; conditions: in vivo
# [7] = Volume of distribution in rat at 1 mg/kg, iv and 1 mg/kg, po; type: ADME, organism-based; conditions: in vivo
# [8] = system: Human immunodeficiency virus 1; test: Antiviral activity against Human immunodeficiency virus 1 NL4-3 assessed as inhibition of viral entry in HeLaP4 cells after 5 days by beta galactosidase reporter assay; type: functional, organism-based; conditions: Human immunodeficiency virus 1, NL4-3, HeLaP4, 120 h
# [9] = Clearance in rat at 1 mg/kg, iv and 1 mg/kg, po; type: ADME, organism-based; conditions: in vivo
# [10] = Lipophilicity, log D at pH 7.4; type: physicochemical; conditions: buffer
# [11] = Bioavailability in rat at 1 mg/kg; type: ADME, organism-based; conditions: in vivo
# [12] = system: Human immunodeficiency virus 1; test: Antiviral activity against Human immunodeficiency virus 1 3B infected human PBMC cells by Phenosense assay; type: functional, organism-based
# [13] = system: Human immunodeficiency virus 1; test: Antiviral activity against Human immunodeficiency virus 1 BR92023 infected human PBMC cells by Phenosense assay; type: functional, organism-based; conditions: Human immunodeficiency virus 1, BR92023, PBMC
# [14] = system: Human immunodeficiency virus 1; test: Antiviral activity against Human immunodeficiency virus 1 BR92004 infected human PBMC cells by Phenosense assay; type: functional, organism-based; conditions: Human immunodeficiency virus 1, BR92004, PBMC
# [15] = system: Human immunodeficiency virus 1; test: Antiviral activity against Human immunodeficiency virus 1 BaL infected human PBMC cells by Phenosense assay; type: functional, organism-based
SMILES,IC50 [1] [nM],microsomal CLint [4] [µL/min/mg],logD [10],CC50 [2] [nM],other results
CNC(=O)c1ccc(O[C@H](C)C(=O)N2CCN(C(=O)c3ccccc3)C[C@H]2C)c(OC)c1,> 2000,–,–,> 10000,–
CCOc1cc(C(=O)NC)ccc1OC(C)C(=O)N1CCN(C(=O)c2ccccc2)C[C@H]1C (mixture of isomers),> 2000,–,–,> 10000,–
CNC(=O)c1ccc(OC(C)C(=O)N2CCN(C(=O)c3ccccc3)C[C@H]2C)c(F)c1 (mixture of isomers),2000,< 8,1.4,> 10000,–
CNC(=O)c1ccc(OC(C)C(=O)N2CCN(C(=O)c3ccccc3)C[C@H]2C)cc1 (mixture of isomers),2600,< 8,1.1,> 10000,–
CNC(=O)c1cccc(OC(C)C(=O)N2CCN(C(=O)c3ccccc3)C[C@H]2C)c1OC (mixture of isomers),> 10000,< 8,1,> 10000,–
CC(Oc1ccccc1C(=O)N(C)C)C(=O)N1CCN(C(=O)c2ccccc2)C[C@H]1C (mixture of isomers),> 25000,31,1.1,> 10000,–
CNC(=O)c1cccc(OC(C)C(=O)N2CCN(C(=O)c3ccccc3)C[C@H]2C)c1 (mixture of isomers),1400,< 8,1.3,> 10000,–
CNC(=O)c1ccccc1OC(C)C(=O)N1CCN(C(=O)c2ccccc2)C[C@H]1C (mixture of isomers),> 25000,23,1.5,> 10000,–
CC(Oc1ccc(C(=O)N(C)C)cc1)C(=O)N1CCN(C(=O)c2ccccc2)C[C@H]1C (mixture of isomers),> 25000,< 8,0.9,> 10000,–
CNC(=O)c1ccc(OC(C)C(=O)N2CCN(C(=O)c3ccccc3)C[C@H]2C)c(C)c1 (mixture of isomers),2900,< 8,1.8,> 10000,–
CNC(=O)c1ccc(OC(C)C(=O)N2CCN(C(=O)c3ccccc3)C[C@H]2C)cc1OC (mixture of isomers),2700,–,–,> 10000,–
CNC(=O)c1cccc(OC(C)C(=O)N2CCN(C(=O)c3ccccc3)C[C@H]2C)c1C (mixture of isomers),12000,< 8,1.2,> 10000,–
CC(Oc1cccc(C(=O)N(C)C)c1)C(=O)N1CCN(C(=O)c2ccccc2)C[C@H]1C (mixture of isomers),> 25000,12,1,> 10000,–

# Stronger by IC50 [1], values ahead:
IC50 [1] [nM],microsomal CLint [4] [µL/min/mg],logD [10],SMILES,CC50 [2] [nM],other results
1000,–,–,CC(Oc1cccc(Cl)c1)C(=O)N1CCN(C(=O)c2ccccc2)C[C@H]1C (stereo not given in full),> 10000,–
17,< 8,1,CNC(=O)c1ccc(O[C@@H](C)C(=O)N2CCN(C(=O)c3ccccc3)C[C@H]2C)c(OC)c1,> 10000,fraction unbound [3]: 0.81; half-life [5]: > 2 h; half-life [6]: 0.7 h; Vd [7]: 4.3 L/kg; IC50 [8]: 3 nM; clearance [9]: 75 mL/min/kg; bioavailability [11]: 48%
11,< 8,0.7,CNC(=O)c1cc(OC)c(O[C@@H](C)C(=O)N2CCN(C(=O)c3ccccc3)C[C@H]2C)cn1 (mixture of isomers),> 10000,IC50 [12]: 10 nM; fraction unbound [3]: 0.69; half-life [5]: > 2 h; IC50 [13]: 0.6 nM; half-life [6]: 1 h; Vd [7]: 1.5 L/kg; IC50 [8]: 2 nM; IC50 [14]: 6 nM; bioavailability [11]: 65%; IC50 [15]: 25 nM
75,141,2.1,Cc1c(OC(C)C(=O)N2CCN(C(=O)c3ccccc3)C[C@H]2C)cccc1-c1ncno1 (mixture of isomers),> 10000,–
1000,< 8,1.1,CNC(=O)c1ccc(OC(C)C(=O)N2CCN(C(=O)c3ccccc3)C[C@H]2C)cc1C (mixture of isomers),> 10000,–
257,–,–,CNC(=O)c1ccc(O[C@@H](C)C(=O)N2CCN(C(=O)c3ccccc3)C[C@H]2C)c(OC)n1 (mixture of isomers),> 10000,–
100,158,–,Cc1ccc(OC(C)C(=O)N2CCN(C(=O)c3ccccc3)C[C@H]2C)cc1C (mixture of isomers),> 10000,–
35,61,2.3,CC(Oc1cccc(-c2ccn[nH]2)c1)C(=O)N1CCN(C(=O)c2ccccc2)C[C@H]1C (mixture of isomers),> 10000,–
